From patent publication US11345716B2, “Nitrogen-containing condensed ring compounds having dopamine D3 antagonistic effect” (Shionogi & Co., Ltd., priority 2016, dated 2022)

How the values were obtained:
impulsivity in rat = experiment: Effect of suppressing impulsivity in rat (T-maze delayed large reward, i.p.); assay type: in vivo; details: 3 mg/kg, total 50 trials of 5 days, versus vehicle control group
Description: Test Example 3-1: Effect of Suppressing Impulsivity in Rat
Male Crl: WI rats were obtained at post-natal day 14 and weaning was occurred at post-natal day 21. Starting from then, the rats were housed 2-3 per cage and food-restricted (Day 1). The feeding amount was 5 g/day at post-natal day 21-28 (Day 1-8), 8.5 g/day at post-natal day 29-32 (Day 9-12), and 10 g/day at post-natal day 33-36 (Day 13-16), preventing their body weight from being 60% or less of the weight of the free feeding rats.
4 days after the beginning of the food restriction (Day 5), pellets were put on goal boxes located in the left-side and the right-side of T-maze. Then, the rats were allowed to freely explore the T-maze-box for 5 min to get habituated to the T-maze box and learn that the pellets were put on the goal boxes located in the left-side and the right-side. For 4 consecutive days from the next day (Day 6-9), one pellet (20 mg×1) was put in one side of the goal box as a small reward, and 5 pellets (20 mg×5) were put in the other side of the goal box as a large reward, and the rats were trained to learn their positions. Each rat underwent 10-trial per day trainings. […] The evaluations of the drug efficacy were started on Day 12. […]

[1] = target: human recombinant dopamine D3 receptor (Homo sapiens (Human), UniProt P35462); experiment: Test of binding inhibition for the human dopamine D3 receptor (SPA, [3H]-Metylspiperone); details: Jump-In HEK cell membranes, 2 nM [3H]-Metylspiperone, 120 min at 25° C.; read-out: hD3_Ki
Sequence of human recombinant dopamine D3 receptor (P35462 whole entry): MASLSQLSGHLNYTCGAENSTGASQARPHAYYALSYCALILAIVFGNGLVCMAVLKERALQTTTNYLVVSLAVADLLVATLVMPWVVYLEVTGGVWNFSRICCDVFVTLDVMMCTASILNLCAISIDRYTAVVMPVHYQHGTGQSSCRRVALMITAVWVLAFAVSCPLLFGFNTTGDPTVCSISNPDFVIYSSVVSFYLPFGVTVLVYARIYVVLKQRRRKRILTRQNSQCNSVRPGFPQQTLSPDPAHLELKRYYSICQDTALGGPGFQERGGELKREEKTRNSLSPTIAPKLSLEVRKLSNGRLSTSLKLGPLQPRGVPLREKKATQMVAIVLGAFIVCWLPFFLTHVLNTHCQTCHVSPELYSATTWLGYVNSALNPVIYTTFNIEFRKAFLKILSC
Procedure: Cell membranes: Jump-In HEK cell membranes expressing human recombinant dopamine D3 receptor (4 μg/well)
(§1) Non-specific ligand: (final concentration) 10 μM Butaclamol [(+)-Butaclamol Hydrochloride, D033, Sigma]
(§2) SPA beads: SPA beads [WGA PVT SPA Scintillation Beads, RPNQ0001 (500 mg), RPNQ0060 (2 g), PerkinElmer] (0.2 mg/well)
(§3) Incubation time and temperature: 120 min at 25° C.
(§4) Butaclamol or the compounds of the present invention were weighed and DMSO was added to make a 10 mM solution. This solution was diluted to each concentration.
[^3H]-Metylspiperone was weighed and the buffer solution was added to make a 6 nM solution.
SPA beads were weighed and stirred in water to make a 50 mg/mL solution. Using this solution, a mixed solution with the cell membranes was prepared.
Jump-In HEK Cell membranes (final reaction amount: 4 μg/well), SPA beads (final reaction amount: 0.2 mg/well) and Tris-HCl buffer were mixed and the mixed solution was left still for more than 60 min at 4° C. Then, 50 μL of the mixture was added to each well of the plate. In addition, 25 μL of 6 nM [^3H]-Metylspiperone (final concentration: 2 nM) was added to each well. […] Non-specific binding was calculated based on the radioactivity of [^3II]-Metylspiperone in the presence of 10 μM non-labeled Butaclamol. The total binding was calculated based on the radioactivity of [^3H]-Metylspiperone in the absence of the compounds of the present invention (Vehicle). The Ki values were calculated from dose-response curves.
Binding activities of the compounds of the present invention were calculated from the following Binding Inhibition Rate (%): Inhibition Rate (%)=[1−(c−a)(b−a)]*100(%) • a: Average cpm of non-specific binding • b: Average cpm of total binding • c: Cpm in the presence of each test compound

[2] = target: human recombinant dopamine D2 receptor (Homo sapiens (Human), UniProt P14416); experiment: Test of binding inhibition for the human dopamine D2 receptor (SPA, [3H]-Metylspiperone); details: Jump-In HEK cell membranes, 1.2 nM [3H]-Metylspiperone, 120 min at 25° C.; read-out: hD2_Ki
Sequence of human recombinant dopamine D2 receptor (P14416 whole entry): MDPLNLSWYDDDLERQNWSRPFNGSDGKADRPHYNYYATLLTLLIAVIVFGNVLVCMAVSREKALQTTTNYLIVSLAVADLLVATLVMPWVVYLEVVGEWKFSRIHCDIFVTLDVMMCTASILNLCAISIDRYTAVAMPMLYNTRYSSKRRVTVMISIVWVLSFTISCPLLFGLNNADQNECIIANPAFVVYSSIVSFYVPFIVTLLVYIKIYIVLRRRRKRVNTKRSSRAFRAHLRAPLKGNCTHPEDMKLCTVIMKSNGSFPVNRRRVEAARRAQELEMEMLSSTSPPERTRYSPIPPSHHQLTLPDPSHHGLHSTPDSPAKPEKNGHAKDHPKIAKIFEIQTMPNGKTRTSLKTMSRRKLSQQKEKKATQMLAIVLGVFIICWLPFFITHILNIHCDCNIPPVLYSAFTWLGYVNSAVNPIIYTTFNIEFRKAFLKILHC
Procedure: Test Example 1: Test of Binding Inhibition for the Human Dopamine D2 Receptor
Cell membranes: Jump-In HEK cell membranes expressing human recombinant dopamine D2 receptor (2 μg/well)
Buffer solution: 50 mM Tris-HCl (35409-45, Nacalai Tesque) (pH 7.4) containing 120 mM NaCl (31320-05, Nacalai Tesque), 1 mM MgCl2.6H2O (20909-55, Nacalai Tesque). 5 mM KCl (28514-75, Nacalai Tesque) and 2 mM CaCl2 (067-31, Nacalai Chemical, Ltd)
Radioligand: (final concentration) 1.2 nM [^3H]-Metylspiperone ([^3H—N-methyl-]-Metylspiperone, NET-856, 83.8 Ci/mmol, PerkinElmer)
as §1, §2, §3, §4
[^3H]-Metylspiperone was weighed and the buffer solution was added to make a 3.6 nM solution.
SPA beads were weighed and stirred in water to moke a 50 mg/mL solution. Using this solution, a mixed solution with the cell membranes was prepared.
225 nL of the solutions of the non-specific ligand or the compounds of the present invention at each concentration (in case of vehicle, final concentration 0.3% DMSO) were added in each well of a 384-well white/clear bottom microplate (3706, Corning). Jump-In HEK Cell membranes (final reaction amount: 2 μg protein/well), SPA beads (final reaction amount: 0.2 mg/well) and the buffer were mixed and the mixed solution was left still for more than or equal to 1 h at 4° C. Then, 50 μL of the mixture was added to each well of the plate. In addition, 25 μL of 3.6 nM [^3H]-Metylspiperone (final concentration: 1.2 nM) was added to each well. The plate was sealed by putting TopSeal-A 96/384 well (6050185, PerkinElmer) on the top of the plate, mixed using stirring deaerator (Welltornado, FK-62, Sakaki) and incubated for 120 min at 25° C. After incubation, the radioactivity of [^3H]-Metylspiperone which was binded to D2 receptor was determined by liquid scintillation counter (1450 Microbeta, PerkinElmer) in each well. Non-specific binding was calculated based on the radioactivity of [^3H]-Metylspiperone in the presence of 10 μM non-labeled Butaclamol. The total binding was calculated using the radioactivity of [^3H]-Metylspiperone in the absence of the compounds of the present invention (Vehicle). The Ki values were calculated from dose-response curves.
Binding activities of the compounds of the present invention were calculated from the following Binding Inhibition Rate (%): Inhibition Rate (%)=[1−(c−a)(b−a)]×100(%) • a: Average cpm of non-specific binding • b: Average cpm of total binding • c: Cpm in the presence of each test compound

Ki [1]	Ki [2]	SMILES	number of choices for the large reward (impulsivity in rat)
1.1 nM	> 1700 nM	Cc1ncc(CC(=O)N[C@H]2CC[C@H](CCN3CCc4cnc(OCC(F)F)nc4CC3)CC2)s1 [II-062]	
0.058 nM	290 nM	COc1cc(CCC(=O)N[C@H]2CC[C@H](CCN3CCc4ccc(OCC(F)F)nc4CC3)CC2)on1 [II-041]	
0.25 nM	480 nM	Cc1ncc(CC(=O)N[C@H]2CC[C@H](CCN3CCc4cc(C)c(OCC(F)F)nc4CC3)CC2)s1 [III-008]	

More lines, now with the values behind:

SMILES	Ki [1]	Ki [2]	number of choices for the large reward (impulsivity in rat)
O=C(N[C@H]1CC[C@H](CCN2CCc3sc(OCC(F)F)nc3C2)CC1)c1cccc2ncccc12 [Compound I-085]			significantly increased
Cc1cc(CC(=O)N[C@H]2CC[C@H](CCN3CCc4sc(N5CC(F)(F)C5)nc4C3)CC2)on1 [Compound I-098]	0.12 nM	1600 nM	
Cc1cn2c(C(=O)N[C@H]3CC[C@H](CCN4CCc5ccc(OCC(F)F)nc5CC4)CC3)cccc2n1 [II-057]	0.014 nM	> 1700 nM	
